Patent US20200306204A1, “TRANSDERMAL DELIVERY SYSTEM COMPRISING BUPRENORPHINE” (LTS Lohmann Therapie-Systeme AG, priority 2011, published 2020)

Assay: Solubility

## CO[C@]12CC[C@@]3(C[C@@H]1[C@](C)(O)C(C)(C)C)[C@H]1Cc4ccc(O)c5c4[C@@]3(CCN1CC1CC1)[C@H]2O5 [Buprenorphine, (5R,6R,7R,9R,13S,14S)-17-Cyclopropylmethyl-7-[(S)-3,3-dimethyl-2-hydroxybutan-2-yl]-6-methoxy-4,5-epoxy-6,14-ethanomorphinan-3-ol]
  Solubility in polysiloxanes: extremely low solubility
